This is an account of results in patent US8993721B2, “Peptides for targeting apoptotic cells and uses thereof” (Kyungpook National University Industry-Academic Cooperation …, priority 2008, dated 2015).

Data set [1] has as its system apoptotic A549 cells. The experiment in a line: Competitive inhibition of binding to apoptotic cells by annexin V treatment (Example 3-2). The format is cell-based, human. The conditions noted are these: annexin V 1000 μM pre-treatment. As to the method: In order to further investigate the binding properties of the peptide of the present invention (ApoPep-1) to apoptotic cells, competitive inhibition by annexin V was measured. To this end, first, apoptotic A549 cells were pre-treated with annexin V, not labeled with fluorescence, at concentrations of 0, 200 and […]. Then, after reacting the cells with fluorescence-labeled annexin V under the same condition as described in Example <3-1>, the binding of the cells was observed under a fluorescence microscope.
Further, apoptotic A549 cells were pre-treated with annexin V, not labeled with fluorescence, at a concentration of 1000 μM. Then, after reacting the cells with fluorescence-labeled peptide under the same condition as described in Example <3-1>, the binding of the cells was observed under a fluorescence microscope.

Data set [2] relates to A549 tumor xenotransplanted in nude mice. Nature of the data set: In vivo fluorescence imaging of targeting of apoptotic cells in tumor (Example 4-1). Details: species or system mouse. As to the method: Nude mice in which tumor was xenotransplanted using A549 cells were prepared as in Example <2-1>. The mice were grouped into a doxorubicin (Sigma) treated group (+Dox) and untreated group (−Dox). The treated group was treated with doxorubicin (10 mg/kg) 3 times, with an interval of 48 hours, a week prior to injection of the peptide. At the tail vein of each mouse, the peptide of the present invention or a control peptide, labeled with fluorescein, was injected at a final concentration of 50 μM, under isoflurane anesthesia. Following the injection, in vivo fluorescence images were obtained every hour, from 1 hour to 6 hours after the injection, using an Optix exPlore instrument (GE Healthcare). The images were standardized using the software provided with the instrument.
Further, when the tumor grew considerably (1 cm or larger in diameter), the peptide of the present invention was injected at the same concentration as above, without doxorubicin treatment, and in vivo fluorescence images were obtained at every given time using an IVIS fluorescence imaging system (Chemipro).

Data set [3] concerns etoposide-treated apoptotic A549 cells. The experiment in a line: FACS analysis of binding to apoptotic cells (Example 3-3). The class given is cell-based, human. As for the experimental part: As another way of confirming the binding of the peptide of the present invention to apoptotic cells, apoptotic cells were treated with the peptide of the present invention, labeled with fluorescein, and the binding was confirmed through FACS analysis. […] The apoptotic cells or normal cells were reacted with ApoPep-1 (5 μM), ApoPep-2 (10 μM) or a control peptide at the same concentrations, labeled with fluorescein, at 4° C. for 1 hour. Further, the cells were reacted with fluorescein-labeled annexin V at room temperature for 15 minutes. After staining the cells with propodium iodide (PI) simultaneously, followed by washing with PBS, FACS analysis was performed using a FACS instrument (Becton Dickinson).
Background: Flow cytometry measures light scatter and fluorescence of single cells or particles in a stream.

In data set [4] the test system is apoptotic cells in A549 tumor tissue xenotransplanted under the skin of nude mouse. Nature of the data set: Histological analysis of tumor targeting (Example 2). The format is in vivo. The note with it: fluorescein-labeled peptide, tail vein; for binding to cells stained by TUNEL (apoptotic cells) in tumor tissue: merge of peptide fluorescence and TUNEL. As for the experimental part:
All animal experiments were performed in accordance with the guideline of the Institutional Animal Care and Use Committee. For tumor xenotransplantation, human lung cancer cells (A549, 1×10^7 cells) suspended in RMPI-1640 medium was subcutaneously injected at the right upper or lower limb of a 6-week-old male BALB/c nude mouse (Hyochang Science). Then, 3 weeks were given for the tumor to grow to a size of 0.5 to 1 cm. The A549 cell line used in the experiment was cultured in RMPI-1640 medium containing 10% fetal bovine serum (FBS) in which antibiotics (penicillin and streptomycin) were included. Subculturing was performed every 3 or 4 days.
The peptides used in the present invention were fluorescein-attached form at the N-terminal. They were synthesized according to the standard Fmoc technique and then isolated through HPLC. The peptide synthesis was performed by an expertise company (Peptron).
The peptide of the present invention (ApoPep-1) or a control peptide (amino acid sequence: NSSSVDK), labeled with fluorescein, was injected into the tail vein of a mouse under isoflurane anesthesia, to a final concentration of 50 μM, and 2 hours was given for circulation.
For histological analysis, the mouse was anesthetized and the abdomen was cut open. After sequentially perfusing phosphate-buffered saline (PBS) and 4% paraformaldehyde through the heart, tumor tissues and organs were removed. Each tissue was cryosected and the peptide of the present invention was observed under a fluorescence microscope (Zeiss). Apoptosis in the tumor tissue was confirmed by TUNEL ([…] terminal deoxynucleotidyl transferase-mediated dUTP nick-end labeling) assay according to the instructions of the manufacturer (Chemicon). Fibrinogen staining was performed by immunohistochemistry using anti-fibrinogen antibody (Abcam) and secondary antibody labeled with Alexa 568, a red fluorescent reagent.

In data set [5] the test system is brain of stroke rat (middle cerebral artery occlusion/reperfusion). The experiment in a line: Molecular imaging of stroke (Example 6). The class given is in vivo. As to the method:
A stroke model was established by occluding the left middle cerebral artery of a rat for 2 hours, followed by reperfusion. Two hours after the reperfusion, the peptide having an amino sequence represented by SEQ ID NO: 1 (ApoPep-1) and a control peptide, labeled with Cy7.5 NIR fluorescence, was intravenously injected at a final concentration of 50 μM to the stroke rat and a normal rat through the tail vein, under isoflurane anesthesia. One and three hours after the intravenous injection, NIR images of the head portion were obtained. Further, NIR fluorescence images of the brains of the rats of the 3 hour group were obtained.

Data set [6] concerns etoposide-treated apoptotic A549 cells. The experiment in a line: Microscopic observation of binding of the peptide to apoptotic cells, A549 (Example 9-1). The format is cell-based, human. As to the method: (§1) Cells were cultured in chamber slide (Nunc) and treated with 50 μM etoposide (Sigma) for 16 hours (A549 cells) or 50 ng/ml trail (R&D Systems) for 16 hours (MDA-MB231 cells) to induce apoptosis. The cells were cultured in RMPI-1640 medium (A549 cells) or DMEM-High (MDA-MB231 cells) containing antibiotics (penicillin and streptomycin) and 10% FBS. All the cells were sub-cultured every 3 or 4 days. The apoptosis-induced apoptotic cells were washed with PBS and blocked with 1% BSA at 37° C. for 30 minutes. Then, the cells were reacted with 10 μM of the peptide labeled with fluorescein, at 4° C. for 1 hour. After washing, the cells were reacted with an annexin V reaction buffer containing Alexa594-labeled annexin V (Invitrogen) at room temperature for 15 minutes. The cells were washed with PBS and then fixed with 4% paraformaldehyde for 5 minutes. After treatment with a mounting solution containing the DAPI nuclear stain, images of the cells were obtained under a fluorescence microscope.

Data set [7] has as its system trail-treated apoptotic MDA-MB231 cells. Nature of the data set: Microscopic observation of binding of the peptide to apoptotic cells, MDA-MB231 (Example 9-1). The format is cell-based. As for the experimental part: as §1
Where [8] appears, read: etoposide 15 hours, peptide 5 μM, 4° C. 1 hour.
The mark [9] stands for this setting: Cy7.5-labeled peptide 50 μM i.v.
Setting [10] is: 10 μM peptide 4° C. 1 hour, Alexa594-annexin V.

Entries after “also recorded” stand apart in the source; their conditions may differ. Where no end group is shown, it is not given here.

Regarding “CQRPPR (also: fluorescein or Cy7.5 label) [ApoPep-1, peptide CQRPPR screened for macrophages; used fluorescein- or Cy7.5-labeled]”, in data set [1], the “binding of fluorescence-labeled peptide after pre-treatment with unlabeled annexin V” value is listed as “not inhibited”. The “time until which the tumor fluorescence signal was detected” value in data set [2] (doxorubicin treated group, fluorescein-labeled peptide 50 μM) came to 5 h. In addition, in data set [2] (doxorubicin treated group, fluorescein-labeled peptide 50 μM, tail vein), the “time at which the fluorescence signal from the tumor tissue was most strongly detected” value was 2 h. Also, the “fluorescence signal from the tumor, doxorubicin untreated group” value in data set [2] (−Dox, fluorescein-labeled peptide 50 μM) was “weakly detected or almost nonexistent”. In data set [3] (A549 cells without etoposide, 4° C. 1 hour), the “binding to normal cells (FACS)” value is “almost nonexistent”. Besides, in data set [3] (setting [8]), the “cells at the early stage of apoptosis bound to the peptide” value is reported as 90.3% and the “cells at the later stage of apoptosis bound to the peptide” value came out at 7.2%. In addition, the “peptide fluorescence observed in the tumor tissue” value in data set [4] (50 μM final, 2 hours circulation, cryosections) is listed as “observed in the tumor tissue”. Moreover, in data set [4] (50 μM, 2 hours), the “binding to cells not stained by TUNEL (coagulation necrotic site, fibrinogen staining)” value was “also binds to the cells not stained by TUNEL” and the “binding to cells stained by TUNEL (apoptotic cells) in tumor tissue” value is “binds to the cells stained by TUNEL”. Also, the “fluorescence of isolated brain of stroke rat” value in data set [5] (3 hour group, left middle cerebral artery occluded) is on record as “fluorescence was observed at the left hemisphere”. In data set [5] (setting [9]), the “NIR fluorescence at the head portion of the normal rat” value is given as “almost nonexistent” and the “NIR fluorescence at the head portion of the stroke rat at 3 hours” value is reported as “very strong fluorescence”. For the same substance, the “NIR fluorescence at the head portion of the stroke rat at 1 hour” value in data set [5] (Cy7.5-labeled peptide 50 μM i.v., 2 hours after reperfusion) is “NIR fluorescence was observed”.
Take “CSVAPR (also: fluorescein or Cy7.5 label) [ApoPep-2, peptide CSVAPR screened for endothelial cells; used fluorescein- or Cy7.5-labeled]”: the “labeling of A549 cells not treated with etoposide” value in data set [6] (setting [10]) was “hardly bound to the untreated cells; also recorded: no labeling was observed”. In addition, the “labeling of etoposide-treated apoptotic A549 cells” value in data set [6] (50 μM etoposide 16 hours, 10 μM fluorescein-labeled peptide 4° C. 1 hour, Alexa594-annexin V) was “strongly bound to the apoptotic cells; also recorded: labeling was observed”. In data set [6] (etoposide-treated apoptotic cells), the “location of peptide binding relative to annexin V binding (merge), A549” value is given as “at the same locations”. In addition, in data set [2] (large tumor (1 cm or larger in diameter), no doxorubicin, IVIS), the “time from which fluorescence from the tumor was detected” value was 2 h. Moreover, the “fluorescence signal from the tumor at 5 hours” value in data set [2] (large tumor (1 cm or larger), no doxorubicin) is “strong fluorescence signal”. In addition, the “labeling of trail-treated apoptotic MDA-MB231 cells” value in data set [7] (50 ng/ml trail 16 hours, 10 μM fluorescein-labeled peptide 4° C. 1 hour, Alexa594-annexin V) was “strongly bound to the apoptotic cells; also recorded: labeling was observed”. For the same substance, the “labeling of MDA-MB231 cells not treated with trail” value in data set [7] (setting [10]) is on record as “hardly bound to the untreated cells; also recorded: no labeling was observed”. For the same substance, the “location of peptide binding relative to annexin V binding (merge), MDA-MB231” value in data set [7] (trail-treated apoptotic cells) was “at the same locations”. The “binding to apoptotic cells versus normal cells (FACS)” value in data set [3] (etoposide 20 hours, peptide 10 μM at 4° C. or 37° C. for 1 hour) is “bound better to the apoptotic cells than to the normal cells”. For the same substance, the “binding to cells stained by TUNEL (apoptotic cells) in tumor tissue” value in data set [4] (50 μM, 2 hours) is recorded as “binds to the apoptotic cells in the tumor tissue”.
